The structures appear in SMILES notation.

This data set is described as follows: gradient 5% acetonitrile 3 min, to 50% in 2 min, to 85% in 15 min, held 3 min, 100 µL/min. To be noted: column: Zorbax Extend-C18 2.1 x 50 mm; eluents: water / acetonitrile, 0.1% formic acid. The procedure, abridged:
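Standards, all pure, were combined into mixtures of ~100 molecules and run at 100 μL/min on a Zorbax Extend-C18 column (2.1 × 50 mm, 1.8 μm) with water and acetonitrile, each containing 0.1% formic acid. A coupled quadrupole time-of-flight mass spectrometer operated in positive and negative ionization mode. Retention time values come from computationally picked adduct peaks, each inspected manually.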
Compound `CCc1ccccc1NC(=O)Cn1cnc2nc(N3CCCC(C(=O)NC)C3)sc2c1=O` (stereo not given) registered an RP-LC retention time of 646 s. The same measure for `CCOC(=O)c1noc2ncnc(NCCc3ccc(OCC)cc3)c12`: 1060 s; for `CCOc1ccccc1-c1noc(-c2nnn3c2COC(c2ccc(C)cc2C)C3)n1` (stereo not given): 1290 s. `CN(C)C(=O)c1cc2c(s1)CCC(C(=O)NC1CCN(Cc3ccccc3)CC1)C2` (stereo not given): the RP-LC retention time was determined as 598 s. The same measure for `CCOc1ccc(CNC(=O)C2CCN(S(=O)(=O)c3cn(CC)cn3)CC2)cc1`: 696 s. To `CCC(=O)NC(C)c1nc(-c2ccc(Cl)cc2)no1` (stereo not given) belongs 823 s. Regarding `Cc1cc(C)cc(Nc2nc(C)cc(=O)n2CC(=O)Nc2ccc3c(c2)OCCO3)c1`, the RP-LC retention time worked out at 785 s.

`COc1ccc(OCc2nc(C3CN(C(=O)C4(c5ccccc5)CC4)C3)no2)cc1` displayed an RP-LC retention time of 904 s. Compound `CCOC(=O)C1CCCN(C(=O)Cn2cnc(-c3cccs3)cc2=O)C1` (stereo not given) registered an RP-LC retention time of 684 s. To `CC(NC(=O)C1CCN(Cc2cn(C)c3ccccc23)CC1)c1ccc(F)cc1` (stereo not given) belongs 699 s; to `CN(C)C(=O)c1cc2c(s1)CCC(C(=O)Nc1ccc3c(c1)OCO3)C2` (stereo not given), 698 s. The same measure for `Cc1ccc(C2=NC3(CCN(C(=O)COc4ccc(Cl)cc4)CC3)ON2)cc1`: 935 s; for `CC(=O)N1CCc2cc(N3CC(C(=O)N4CCC5(CC4)OCCO5)CC3=O)ccc21` (stereo not given): 620 s; for `CCC(C)NC(=O)c1ccc(-c2csc(C)n2)cc1` (stereo not given): 799 s. The same measure for `CCCNC(=O)CSc1nc2nc(C)cc(C)n2n1`: 611 s; for `Cc1c(C(=O)NCC(C)C)cnn1-c1ccc(-c2nc(C(C)(C)C)no2)cn1`: 1110 s.

Compound `CCOc1ccc(-c2nc(-c3ccc4c(c3)oc(=O)n4C)no2)cc1` yielded an RP-LC retention time of 1130 s.

In turn, `COc1ccc(S(=O)(=O)N2CCC(OCCOc3ccccc3)CC2)cc1` yielded an RP-LC retention time of 1070 s. For `COc1cccc(N2CCN(Cc3nc(-c4ccc(N5CCC(C)CC5)nc4)no3)CC2)c1`, the RP-LC retention time turned out to be 1020 s.

For `Cc1cccc(-n2c(=O)c3c(cc(C)n3C)n(CC(=O)Nc3ccc(Cl)cc3)c2=O)c1`, the RP-LC retention time was determined as 923 s. The same measure for `CC1(O)CCOC2(CCN(Cc3cn[nH]c3-c3ccccc3)CC2)C1` (stereo not given): 584 s. To `O=C(CCc1cc2ccccc2[nH]c1=O)NCCN1CCc2ccccc2C1` belongs 607 s; to `CC(C)OCCCNC(=O)c1nnc(-c2ccc(S(=O)(=O)N3CCCCC3)cc2)o1`, 917 s; to `CC(C)c1ccc(-c2ccnc3c(C(=O)NCc4ccco4)cnn23)cc1`, 1090 s.

Consider `COc1ccc(C(C)NC(=O)c2cn3c(n2)COCC3)cc1OC` (stereo not given), for which the RP-LC retention time is 608 s. The same measure for `CC(C)c1cccc2sc(NC(=O)C3CCCN(S(C)(=O)=O)C3)nc12` (stereo not given): 965 s; for `O=C(Nc1ccccc1F)N1CCN(Cc2nc3ccc(Cl)cc3o2)CC1`: 745 s. To `COc1ccc(N2CCN(C(=O)c3csc(C(=O)NC4CC4)n3)CC2)cc1` belongs 700 s. The same measure for `CCn1cc(CCNC(=O)Nc2ccc(C)cc2Cl)c2cccnc21`: 812 s; for `COc1ccc2[nH]c(C(=O)N3CCN(C(=O)c4ccc(Br)o4)CC3)cc2c1`: 784 s. Turning to `CC(C)(C[C@@](O)(Cc1cc2ccncc2[nH]1)C(F)(F)F)c1cc(F)ccc1O`, the RP-LC retention time turned out to be 790 s. To `O=C(NCc1csc(C2CCCN(C(=O)C3CCCC3)C2)n1)C1CC1` (stereo not given) belongs 671 s.

Compound `Cc1cc(C(=O)NCc2ccc(C)o2)c2ccccc2n1` returned an RP-LC retention time of 634 s. To `Cn1nc(-c2nc(-c3ccccc3F)no2)c2c1CCN(C(=O)NC(C)(C)C)C2` belongs 594 s; to `CCc1cc(C2CCCN2Cc2cc(OC)c(O)c(OC)c2)on1` (stereo not given), 575 s; to `COc1ccc(C2(C(=O)N3CCC(Oc4ccc(-c5noc(C)n5)cc4)C3)CC2)cc1` (stereo not given), 913 s.

In turn, `Cc1nnc(N2CCCC(C(=O)N3CCN(c4ccccn4)CC3)C2)c2nn(-c3ccccc3)c(C)c12` (stereo not given) came in with an RP-LC retention time of 584 s. To `CCCN(CCC)C(=O)C1COC2(CCN(C(=O)c3ccco3)CC2)N1C(=O)c1ccccc1` (stereo not given) belongs 778 s; to `CCc1nc2c(NC(=O)c3cc(F)cc(F)c3)cccn2n1`, 851 s; to `CC(C)CN1C(=O)c2ccccc2C(C(=O)N2CCN(c3ccccn3)CC2)C1c1cccs1` (stereo not given), 674 s.

The compound `COc1ccccc1-c1nc(Cc2noc(-c3cccc(F)c3)n2)c(C)o1` showed an RP-LC retention time of 1080 s. To `O=c1nc(NCc2ccccc2)c2ccccc2[nH]1` belongs 620 s; to `O=C(NCc1cccs1)c1ccnc(N2CCNC(c3ccccc3)C2)c1` (stereo not given), 631 s; to `CCOc1ccc2nc(C(=O)NC(C)C)cn2n1`, 731 s. To `Cc1csc(-n2nc(C)c(CC(=O)Nc3ccc(F)cc3)c2C)n1` belongs 950 s; to `CCOc1ccc(/C=C/C(=O)Nc2nc(-c3ccc4c(c3)N(C)C(=O)CO4)cs2)cc1OC`, 985 s; to `O=C(O)COC(=O)Cc1ccccc1Nc1c(Cl)cccc1Cl`, 957 s. To `O=S(=O)(c1cccc(F)c1)N1CC(F)(F)C[C@H]1CN1CCc2ccccc2C1` belongs 733 s; to `O=C(NCC1(N2CCOCC2)CCOC1)Nc1ccc2c(c1)OCCO2` (stereo not given), 589 s; to `Cc1ccc2nc(C(=O)N3CCN(c4ccccc4C)CC3)cn2c1`, 664 s.

`COc1ccc(-c2nnc(-c3ccc(OC)c(S(=O)(=O)N4CCCC4)c3)o2)cc1OC` came in with an RP-LC retention time of 844 s. To `COc1ccc(OC)c(S(=O)(=O)N2CCCN(S(=O)(=O)c3ccccc3)CCC(=O)NCC2)c1` belongs 793 s; to `CCc1nc(-c2ccc(C(=O)N3CCN(c4ncccn4)CC3)cc2)cs1`, 843 s; to `COc1ccc(S(=O)(=O)N2CCCC(C(=O)Nc3cccc(F)c3)C2)cc1C` (stereo not given), 1040 s. Turning to `O=C(C1COc2ccccc2O1)N1CCN(c2cc(-c3ccc(Cl)cc3)[nH]n2)CC1` (stereo not given), the RP-LC retention time was determined as 926 s.

In turn, `CCN1C(=O)COc2ccc(-c3nc(NC(=O)c4ccccc4Cl)sc3C)cc21` displayed an RP-LC retention time of 1000 s.

On to `O=C(Nc1cnn(-c2ncncc2N2CCCC2)c1)c1ccc(C(F)(F)F)cc1`, for which the RP-LC retention time was found to be 779 s. The same measure for `O=C(Nc1ccccc1F)C(=O)c1cn(CC(=O)N2CCCC2)c2ccccc12`: 974 s.

Take `O=C(Nc1ccc(F)cc1F)C1CCCN(c2ncnc3c2nc2n3CCCCC2)C1` (stereo not given): the RP-LC retention time amounted to 824 s.

Regarding `Cc1noc(C)c1CC(=O)N1CCCn2ccnc2C1C(C)C` (stereo not given), the RP-LC retention time was found to be 632 s. To `Cc1[nH]nc2ccc(-c3cncc(OC[C@@H](N)Cc4ccccc4)c3)cc12` belongs 624 s; to `Cc1nc2nc(-c3ccccc3)nn2c(C)c1CC(=O)NC(C)C`, 700 s. To `CN1CCn2cc(S(=O)(=O)Nc3ccc(Cl)cc3)cc2C1=O` belongs 720 s; to `CCc1ccc(OCc2nc(CCN(C)C(=O)Nc3ccc(OC)cc3)no2)cc1`, 949 s; to `CCCc1cc(N2CCN(C(=O)c3ccco3)CC2)nc2nnc(C)n12`, 868 s. The same measure for `CCn1c(=O)c(C(=O)NCc2cccnc2)nc2cccnc21`: 555 s; for `N#Cc1ccc(S(=O)(=O)N2CC(c3nc(CCOCC4CCOCC4)no3)C2)cc1`: 813 s; for `Cc1cc(C)cc(NC(=O)C2CCN(S(=O)(=O)c3cc(-c4noc(C)n4)cs3)CC2)c1`: 953 s. For `NC(=O)c1nccn1Cc1ccccc1`, the RP-LC retention time stood at 645 s. The same measure for `Cc1ccccc1S(=O)(=O)N1CCC(CCC(=O)N2CCc3ccccc3C2)CC1`: 1060 s; for `COc1ccc(C(=O)Nc2nc3c(s2)Cc2c(Br)ccc(OC)c2-3)cc1OC`: 1100 s; for `O=C(NC1CC1)c1cn(CCC2CCCCN2C(=O)C2CC2)nn1` (stereo not given): 636 s. The same measure for `CC1Oc2ccccc2N(Cc2nc(-c3ccc4c(c3)OCO4)no2)C1=O` (stereo not given): 1010 s; for `Cc1nc(-c2cnccn2)nc2c1CCC(=O)N2Cc1ccccc1F`: 726 s; for `O=C(NCc1ccc(F)cc1)C1CCN(c2nnc3c(Cl)cccn23)CC1`: 645 s. Take `COCCN1C(=O)[C@H]2CN(Cc3ccc(C)cc3C)C[C@H]2C1=O`: the RP-LC retention time amounted to 644 s.

The compound `COc1ccc(CC2C(=O)Nc3ccc(Br)cc32)cc1` (stereo not given) gave an RP-LC retention time of 882 s. To `CN(C)S(=O)(=O)c1ccc2c(c1)N(CC(=O)NCc1ccc(F)cc1)C(=O)C1CCCCN21` (stereo not given) belongs 896 s; to `COCCN1C(=O)[C@H]2CN(Cc3ccccc3C(F)(F)F)C[C@H]2C1=O`, 849 s.

The compound `COc1ccc2oc(-c3csc(NC(=O)c4ccc([N+](=O)[O-])s4)n3)cc2c1` registered an RP-LC retention time of 1110 s.

The values above are taken from the METLIN SMRT retention time set (Domingo-Almenara et al. 2019).
